pEC50, pIC50: −log10 of the molar value. Converted amounts (≈) assume the structure as drawn. *1 amine or outer side, *2 acyl side, *3 side chain or, on linkers, in order; H or OH if unused. Where a SMILES comes first, the peptide text is derived from it. [ ]: non-standard residue; d: D form. X1 = CS[C@H]1C[C@@H](C(=O)[*:2])N([*:1])C1
Experiments:
MDA-MB-231 = assay: Antitumor activity against human MDA-MB-231 cells assessed as decrease in cell viability measured after 36 hrs by WST-1 assay; type: functional, cell-based; settings: MDA-MB-231, 36 h
PANC-1 = assay: Antitumor activity against human PANC-1 cells assessed as decrease in cell viability measured after 36 hrs by WST-1 assay; type: functional, cell-based; settings: PANC-1, 36 h
[1] = Cytotoxicity against human MC3T3-E1 cells assessed as decrease in cell viability measured after 36 hrs by WST-1 assay; type: toxicity, cell-based; settings: mouse
[2] = Selectivity index, Ratio of IC50 for human MC3T3-E1 cells to IC50 of human MDA-MB-231 cells; type: toxicity; settings: MC3T3-E1 cells versus MDA-MB-231 cells, read-out: Ratio IC50
[3] = Selectivity index, Ratio of IC50 for human MC3T3-E1 cells to IC50 of human PANC-1 cells
Escherichia coli = assay: Antimicrobial activity against Escherichia coli ATCC 25922 incubated for 18 to 20 hrs; type: functional; settings: time 18-20 hrs
Priestia megaterium = assay: Antimicrobial activity against Bacillus megaterium Bm11 incubated for 18 to 20 hrs; type: functional; settings: time 18-20 hrs
[4] = system: Staphylococcus epidermidis; assay: Antimicrobial activity against Staphylococcus epidermidis ATCC 12228 incubated for 18 to 20 hrs; type: functional; settings: time 18-20 hrs
Pseudomonas aeruginosa = assay: Antimicrobial activity against Pseudomonas aeruginosa ATCC 27853 incubated for 18 to 20 hrs; type: functional; settings: time 18-20 hrs
Candida albicans = assay: Antimicrobial activity against Candida albicans ATCC 24433 incubated for 18 to 20 hrs; type: functional; settings: time 18-20 hrs
Nonstructural protein 5A [5] = biological target: T1, Nonstructural protein 5A (Hepatitis C virus, UniProt Q5L478); assay: Inhibition of HCV genotype 1a NS5A; parameters: species or system Hepacivirus hominis
T1 sequence (Q5L478 whole entry): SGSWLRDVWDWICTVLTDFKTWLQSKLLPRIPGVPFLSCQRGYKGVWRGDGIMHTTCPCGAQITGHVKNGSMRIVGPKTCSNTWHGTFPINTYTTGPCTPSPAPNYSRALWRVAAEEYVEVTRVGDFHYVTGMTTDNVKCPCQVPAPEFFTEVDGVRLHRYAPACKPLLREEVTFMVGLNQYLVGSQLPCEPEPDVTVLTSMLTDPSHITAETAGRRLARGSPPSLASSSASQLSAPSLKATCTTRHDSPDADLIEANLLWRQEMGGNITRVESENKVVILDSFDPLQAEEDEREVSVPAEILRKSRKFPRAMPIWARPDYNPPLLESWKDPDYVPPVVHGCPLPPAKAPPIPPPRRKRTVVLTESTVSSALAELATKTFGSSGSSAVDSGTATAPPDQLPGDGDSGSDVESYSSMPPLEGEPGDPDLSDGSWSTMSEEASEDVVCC

Nonstructural protein 5A [6] = biological target: T1, Nonstructural protein 5A; assay: Inhibition of HCV genotype 1b NS5A; parameters: species or system Hepacivirus hominis
Nonstructural protein 5A [7] = biological target: T1, Nonstructural protein 5A; assay: Inhibition of HCV genotype 2a NS5A; parameters: species or system Hepacivirus hominis
Nonstructural protein 5A [8] = biological target: T1, Nonstructural protein 5A; assay: Inhibition of HCV genotype 3a NS5A; parameters: species or system Hepacivirus hominis
Nonstructural protein 5A [9] = biological target: T1, Nonstructural protein 5A; assay: Inhibition of HCV genotype 4a NS5A; parameters: species or system Hepacivirus hominis
Nonstructural protein 5A [10] = biological target: T1, Nonstructural protein 5A; assay: Inhibition of HCV genotype 5a NS5A; parameters: species or system Hepacivirus hominis
Nonstructural protein 5A [11] = biological target: T1, Nonstructural protein 5A; assay: Inhibition of HCV genotype 6a NS5A; parameters: species or system Hepacivirus hominis

CCCCCCCCC#CC(c1ccccc1)N1CCCC1 (configuration not stated)
pIC50 (MDA-MB-231): 4.13
pIC50 (PANC-1): 4.67
IC50 at 36 h [1]: 250000 nM
selectivity ratio [2]: 3.38
Ratio IC50 [3]: 11.6

CC[C@H](C)[C@H](NC(=O)[C@H](CCCNC(=N)N)NC(=O)CNC(=O)[C@H](CC(C)C)NC(=O)[C@H](Cc1ccccc1)NC(=O)[C@H](CCCCN)NC(=O)[C@H](CO)NC(=O)[C@H](Cc1ccccc1)NC(=O)[C@H](Cc1c[nH]c2ccccc12)NC(=O)[C@H](CCC(N)=O)NC(=O)[C@@H]1C[C@H](SC)CN1C(=O)[C@@H](NC(=O)[C@@H](N)Cc1ccccc1)C(C)C)C(=O)N[C@@H](CC(C)C)C(N)=O (H-FV[X1]QWFSKFLGRIL-NH2)
MIC (Escherichia coli): 12.5 µM (≈ 22.3 µg/mL)
MIC (Priestia megaterium): 3.12 µM (≈ 5.56 µg/mL)
MIC [4]: 3.12 µM (≈ 5.56 µg/mL)
MIC (Pseudomonas aeruginosa): 25 µM (≈ 44.6 µg/mL)
MIC (Candida albicans): 6.25 µM (≈ 11.1 µg/mL)

COC(=O)N[C@H](C(=O)N1CCC[C@H]1c1ncc(-c2ccc3c(c2)CC2c4c(F)cc(-c5cnc([C@@H]6CCCN6C(=O)[C@@H](NC(=O)OC)C(C)C)[nH]5)cc4O[C@@H](c4cnc(C5CC5)s4)N32)[nH]1)C(C)C (some centres not stated)
pEC50 (Nonstructural protein 5A [5]): 12.15
pEC50 (Nonstructural protein 5A [6]): 11.70
pEC50 (Nonstructural protein 5A [7]): 12.00
pEC50 (Nonstructural protein 5A [8]): 11.52
pEC50 (Nonstructural protein 5A [9]): 12.15
pEC50 (Nonstructural protein 5A [10]): 11.74
pEC50 (Nonstructural protein 5A [11]): 12.00

CCCCCCCCC#CC(c1ccc(C(=O)OC)cc1)N1CCCC1 (configuration not stated)
pIC50 (MDA-MB-231): 3.54
pIC50 (PANC-1): 4.87
IC50 at 36 h [1]: 558000 nM
selectivity ratio [2]: 1.91
Ratio IC50 [3]: 41.17

From ChEMBL document CHEMBL5126543, “Tandem construction of biological relevant aliphatic 5-membered N-heterocycles” (Eur J Med Chem, 2022)
